Assay [1] deals with human RORγt ligand binding domain (RORγt LBD) (Homo sapiens (Human), UniProt P51449). The experiment in a line: RORγt ThermoFluor assay. From the text:
ThermoFluor® is a fluorescence based assay that estimates ligand binding affinities by measuring the effect of a ligand on protein thermal stability (Pantoliano, M. W., Petrella, E. C., Kwasnoski, J. D., Lobanov, V. S., Myslik, J., Graf, E., Carver, T., Asel, E., Springer, B. A., Lane, P., and Salemme, F. R. (2001) High-density miniaturized thermal shift assays as a general strategy for drug discovery. J Biomol Screen 6, 429-40, and Matulis, D., Kranz, J. K., Salemme, F. R., and Todd, M. J. (2005) Thermodynamic stability of carbonic anhydrase: measurements of binding affinity and stoichiometry using ThermoFluor. Biochemistry 44, 5258-66). This approach is applicable to a wide variety of systems, and rigorous in theoretical interpretation through quantitation of equilibrium binding constants (KD).
The shift in the melting point described as a ΔTm is proportional to the concentration and affinity of the ligand. The compound potency may be compared as a rank order of either values at a single compound concentration or in terms of KD values, estimated from concentration response curves.
RORγt ThermoFluor® Assay Construct
For the RORγt construct used in the ThermoFluor® assay, numbering for the nucleotide sequences was based on the reference sequence for human RORγt, transcript variant 2, NCBI Accession: NM 001001523.1 (SEQ ID NO:1). Nucleotides 850-1635 (SEQ ID NO:2) coding for the wild type human RORγt ligand binding domain (RORγt LBD) were cloned into the pHIS1 vector, a modified pET E. coli expression vector (Accelagen, San Diego), containing an in-frame N-terminal His-tag and a TurboTEV protease cleavage site (ENLYFQG, SEQ ID NO:3) upstream of the cloned insert sequence. The amino acid sequence for the RORγt construct used in the Thermofluor® assay is shown as SEQ ID NO:4.
ThermoFluor® experiments were carried out using instruments owned by Janssen Research and Development, L.L.C. through its acquisition of 3-Dimensional Pharmaceuticals, Inc. 1,8-ANS (Invitrogen) was used as a fluorescent dye. Protein and compound solutions are dispensed into black 384-well polypropylene PCR microplates (Abgene) and overlayed with silicone oil (1 μL, Fluka, type DC 200) to prevent evaporation.
Bar-coded assay plates are robotically loaded onto a thermostatically controlled PCR-type thermal block and then heated at a typical ramp-rate of 1° C./min for all experiments. Fluorescence was measured by continuous illumination with UV light (Hamamatsu LC6) supplied via fiber optic and filtered through a band-pass filter (380-400 nm; >6 OD cutoff). Fluorescence emission of the entire 384-well plate was detected by measuring light intensity using a CCD camera (Sensys, Roper Scientific) filtered to detect 500±25 nm, resulting in simultaneous and independent readings of all 384 wells. Images were collected at each temperature, and the sum of the pixel intensity in a given area of the assay plate was recorded versus temperature. Reference wells contained RORγt without compounds, and the assay conditions were as follows:
Project compounds were arranged in a pre-dosed mother plate (Greiner Bio-one) wherein compounds are serially diluted in 100% DMSO by 1:2 from a high concentration of 10 mM over 12 columns within a series (column 12 is a reference well containing DMSO, no compound). The compounds were robotically dispensed directly into assay plates (1×=46 nL) using a Hummingbird capillary liquid handling instrument (Digilab). Following compound dispense, protein and dye in buffer was added to achieve the final assay volume of 3 μL, followed by 1 μL of silicone oil.
The binding affinity was estimated as described previously (Matulis, D., Kranz, J. K., Salemme, F. R., and Todd, M. J. (2005) Thermodynamic stability of carbonic anhydrase: measurements of binding affinity and stoichiometry using ThermoFluor®. Biochemistry 44, 5258-66) using the following thermodynamic parameters of protein unfolding:
Reference RORγt Tm: 47.8° C.
Background: Differential scanning fluorimetry follows unfolding on heating by fluorescence.

In assay [2] the target is full-length human RORγt (GAL4-DBD-RORγt fusion) in HEK293T cells (Homo sapiens (Human), UniProt P51449). Kind of assay: RORγt (full-length human) reporter assay, conditions A or B. Conditions: for IC50: HEK293T cells, read-out: RORγt (FL) Reporter Assay A or B, IC50; for inhibition at 3 µM: 3 μM compound concentration (footnote *). It counts as cell-based. The protocol: RORγt (Full-Length Human) Reporter Assay:
(§1) HEK293T cells were plated at 35,000 per well in 96-well plate in medium of DMEM with 10% FBS. […] After overnight (16 to 20 hours) incubation, media were removed and cells were lysed with 50 μL Glo Lysis Buffer (Promega) for 10-15 minutes followed by 10 minute incubation with 50 μL Dual Glo reagent (Promega) at room temperature. Firefly luciferase luminescence was measured using a BMG Pherastar plate reader. To each well, 50 μL Stop and Glo reagent was added and incubated for 10 minutes at room temperature. Renilla luminescence was measured using a BMG Pherastar plate reader. To calculate the effect of compounds on RORγt activity, firefly values were normalized against values of DMSO only and values of reference compound at saturating concentration, then further normalized against Renilla signals. IC50s were generated by plotting final Renilla normalized data against compound concentration and percent inhibition was calculated against DMSO control.
as §1, with “at 8750 cells” for “at 35,000”, “in 384-well” for “in 96-well”, “with 20” for “with 50”, “well, 20” for “well, 50”
Background: A reporter such as luciferase makes a cellular process visible.

Where [3] appears, read: HEK-293T, read-out: RORγt (FL) Reporter Assay A or B, % inhibition.

Chain of full-length human RORγt (GAL4-DBD-RORγt fusion) in HEK293T cells (P51449 other isoform, or with tags, fused parts or gaps): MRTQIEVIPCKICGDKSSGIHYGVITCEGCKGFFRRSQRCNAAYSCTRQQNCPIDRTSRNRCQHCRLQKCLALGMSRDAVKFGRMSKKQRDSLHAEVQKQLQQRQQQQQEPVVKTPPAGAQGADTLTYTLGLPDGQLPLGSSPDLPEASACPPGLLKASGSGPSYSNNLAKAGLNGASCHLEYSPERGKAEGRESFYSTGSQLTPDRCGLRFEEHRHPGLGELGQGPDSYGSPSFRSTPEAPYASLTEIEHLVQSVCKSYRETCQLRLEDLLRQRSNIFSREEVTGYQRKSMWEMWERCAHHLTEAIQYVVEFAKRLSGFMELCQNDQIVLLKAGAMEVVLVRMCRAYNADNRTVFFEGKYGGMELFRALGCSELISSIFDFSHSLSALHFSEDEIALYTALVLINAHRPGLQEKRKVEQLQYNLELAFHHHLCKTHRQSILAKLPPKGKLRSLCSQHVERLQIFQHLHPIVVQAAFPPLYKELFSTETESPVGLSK
Chain of human RORγt ligand binding domain (RORγt LBD) (P51449 other isoform, or with tags, fused parts or gaps): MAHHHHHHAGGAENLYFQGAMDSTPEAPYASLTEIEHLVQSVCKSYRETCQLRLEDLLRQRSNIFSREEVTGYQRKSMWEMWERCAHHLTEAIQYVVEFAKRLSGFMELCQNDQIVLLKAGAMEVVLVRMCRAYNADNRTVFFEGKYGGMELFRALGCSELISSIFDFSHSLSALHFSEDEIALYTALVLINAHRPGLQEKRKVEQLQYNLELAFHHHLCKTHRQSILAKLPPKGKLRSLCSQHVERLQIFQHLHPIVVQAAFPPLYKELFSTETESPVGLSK

Turning to `CCn1nc(C(=O)NC[C@@]2(O)CC[C@H](S(C)(=O)=O)C[C@@H]2O)c(C)c1-c1ccc(CC(C)(C)C(F)(F)F)nc1OC(F)F` (relative stereo) [Example 51, 5-(2-(Difluoromethoxy)-6-(3,3,3-trifluoro-2,2-dimethylpropyl)pyridin-3-yl)-N-(((1S*,2S*,4S*)-1,2-dihydroxy-4-(methylsulfonyl)cyclohexyl)methyl)-1-ethyl-4-methyl-1H-pyrazole-3-carboxamide], the Kd – broadly, the concentration at which binding is half-saturated – in assay [1] was 3.2 nM. Further, the IC50 (as a rule, the concentration that inhibits the measured activity by half) in assay [2] turned out to be 35 nM. In addition, the inhibition (commonly the drop in the measured response relative to a control, in per cent) at 3 µM in assay [2] (setting [3]) was determined as 97%.

Consider `CCn1nc(C(=O)NC[C@H]2CC[C@H](S(C)(=O)=O)CC2)c(Cl)c1-c1cnc(C[C@H](C)C(F)(F)F)cc1OC(F)F` (single isomer, unassigned) [Example 14, 4-Chloro-5-(4-(difluoromethoxy)-6-((S*)-3,3,3-trifluoro-2-methylpropyl)pyridin-3-yl)-1-ethyl-N-(((1r,4S)-4-(methylsulfonyl)cyclohexyl)methyl)-1H-pyrazole-3-carboxamide], for which, in assay [1], the Kd was found to be 3.6 nM. The IC50 in assay [2] turned out to be 36 nM. In assay [2] (setting [3]), the inhibition at 3 µM was found to be 82%.

In assay [1], `CCn1nc(C(=O)NC[C@]2(O)CC[C@@H](S(C)(=O)=O)CC2)c(Cl)c1-c1cnc(C[C@H](C)C(F)(F)F)cc1OC(F)F` (single isomer, unassigned) [Example 15, 4-Chloro-5-(4-(difluoromethoxy)-6-((S*)-3,3,3-trifluoro-2-methylpropyl)pyridin-3-yl)-1-ethyl-N-(((1s,4R)-1-hydroxy-4-(methylsulfonyl)cyclohexyl)methyl)-1H-pyrazole-3-carboxamide] came in with a Kd of 12 nM. Further, the IC50 in assay [2] was determined as 98 nM. In assay [2] (setting [3]), the inhibition at 3 µM turned out to be 71%.

As for `CCn1nc(C(=O)NC[C@H]2CC[C@H](S(C)(=O)=O)CC2)c(C)c1-c1cnc(C[C@H](C)C(F)(F)F)cc1OC(F)F` (single isomer, unassigned) [Example 16, 5-(4-(Difluoromethoxy)-6-((S*)-3,3,3-trifluoro-2-methylpropyl)pyridin-3-yl)-1-ethyl-4-methyl-N-(((1r,4S)-4-(methylsulfonyl)cyclohexyl)methyl)-1H-pyrazole-3-carboxamide], binding in assay [1] was put at a Kd of 5.2 nM. The IC50 in assay [2] was 16 nM. Also, in assay [2] (setting [3]), the inhibition at 3 µM worked out at 101%.

As for `CCn1nc(C(=O)NC[C@H]2CC[C@H](S(C)(=O)=O)CC2)c(Cl)c1-c1cnc(C[C@@H](C)C(F)(F)F)cc1OC(F)F` (single isomer, unassigned) [Example 17, 4-Chloro-5-(4-(difluoromethoxy)-6-((R*)-3,3,3-trifluoro-2-methylpropyl)pyridin-3-yl)-1-ethyl-N-(((1r,4R)-4-(methylsulfonyl)cyclohexyl)methyl)-1H-pyrazole-3-carboxamide], binding in assay [1] was characterised by a dissociation constant (Kd) of 4.1 nM. Also, the IC50 in assay [2] worked out at 34 nM. In assay [2] (setting [3]), the inhibition at 3 µM is 125%.

With `CCn1nc(C(=O)NC[C@]2(O)CC[C@@H](S(C)(=O)=O)CC2)c(Cl)c1-c1cnc(C[C@@H](C)C(F)(F)F)cc1OC(F)F` (single isomer, unassigned) [Example 18, 4-Chloro-5-(4-(difluoromethoxy)-6-((R*)-3,3,3-trifluoro-2-methylpropyl)pyridin-3-yl)-1-ethyl-N-(((1s,4S)-1-hydroxy-4-(methylsulfonyl)cyclohexyl)methyl)-1H-pyrazole-3-carboxamide], the Kd in assay [1] came to 18 nM. In addition, the IC50 in assay [2] was found to be 140 nM. Further, in assay [2] (setting [3]), the inhibition at 3 µM came to 100%.

Consider `CCn1nc(C(=O)NC[C@H]2CC[C@H](S(C)(=O)=O)CC2)c(C)c1-c1cnc(C[C@@H](C)C(F)(F)F)cc1OC(F)F` (single isomer, unassigned) [Example 19, 5-(4-(Difluoromethoxy)-6-((R*)-3,3,3-trifluoro-2-methylpropyl)pyridin-3-yl)-1-ethyl-4-methyl-N-(((1r,4R)-4-(methylsulfonyl)cyclohexyl)methyl)-1H-pyrazole-3-carboxamide], for which the Kd in assay [1] stood at 17 nM. Also, the IC50 in assay [2] was determined as 40 nM. In addition, in assay [2] (setting [3]), the inhibition at 3 µM is 105%.

In turn, `CCn1nc(C(=O)NC[C@]2(O)CC[C@@H](S(C)(=O)=O)CC2)c(C)c1-c1cnc(C[C@@H](C)C(F)(F)F)cc1OC(F)F` (single isomer, unassigned) [Example 20, 5-(4-(Difluoromethoxy)-6-((R*)-3,3,3-trifluoro-2-methylpropyl)pyridin-3-yl)-1-ethyl-N-(((1s,4S)-1-hydroxy-4-(methylsulfonyl)cyclohexyl)methyl)-4-methyl-1H-pyrazole-3-carboxamide] showed a Kd in assay [1] of 34 nM. Further, the IC50 in assay [2] was 99 nM. In addition, in assay [2] (setting [3]), the inhibition at 3 µM came out at 123%.

Molecule `CCn1nc(C(=O)NC[C@H]2CC[C@H](S(C)(=O)=O)CC2)c(Cl)c1-c1cnc(C[C@@H](C)C(F)(F)F)cc1OC` (single isomer, unassigned) [Example 61, 4-Chloro-1-ethyl-5-(4-methoxy-6-((R*)-3,3,3-trifluoro-2-methylpropyl)pyridin-3-yl)-N-((1r,4r)-4-(methylsulfonyl)cyclohexyl)methyl)-1H-pyrazole-3-carboxamide] came in with a Kd in assay [1] of 16 nM. In addition, in assay [2], the IC50 is 110 nM. For the same molecule, the inhibition at 2 µM in assay [2] (HEK-293T, 2 μM compound concentration, read-out: RORγt (FL) Reporter Assay A or B, % inhibition) stood at 87%.

`CCn1nc(C(=O)NC[C@]2(O)CC[C@@H](S(C)(=O)=O)C[C@H]2O)c(Cl)c1-c1cnc(CC(C)(C)C(F)(F)F)cc1OC(F)F` (stereo in doubt) [Example 3, 4-Chloro-5-(4-(difluoromethoxy)-6-(3,3,3-trifluoro-2,2-dimethylpropyl)pyridin-3-yl)-N-(((1R*,2R*,4R*)-1,2-dihydroxy-4-(methylsulfonyl)cyclohexyl)methyl)-1-ethyl-1H-pyrazole-3-carboxamide] displayed a Kd in assay [1] of 8.1 nM. The IC50 in assay [2] stood at 63 nM. Besides, the inhibition at 3 µM in assay [2] (setting [3]) worked out at 105%.
